Tested on: SEM cells
Experiment: cell viability relative to DMSO control; higher = less cytotoxic
Conditions: 48 h
How it was run: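 Before seeding, each leukemia line was adapted for at least four passages in each medium. NOMO1 or SEM cells (500 cells/well) and P12-Ichikawa cells (1000 cells/well) went into 1536-well plates at 5 μl, then received library compounds in DMSO by pin dosing across 11 threefold concentrations, 47 μM to 0.79 nM. Readout was CellTiter-Glo One luminescence after 48 h at 37°C, and viability is given as a per-plate percentage of DMSO wells, with cell-free wells as background.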

[1] = HPLM + 10% dialyzed FBS, 0.000781 µM
[2] = HPLM + 10% dialyzed FBS, 0.00234 µM
[3] = HPLM + 10% dialyzed FBS, 0.00702 µM
[4] = HPLM + 10% dialyzed FBS, 0.0211 µM
[5] = HPLM + 10% dialyzed FBS, 0.0632 µM
[6] = HPLM + 10% dialyzed FBS, 0.19 µM
[7] = HPLM + 10% dialyzed FBS, 0.569 µM
[8] = HPLM + 10% dialyzed FBS, 1.71 µM
[9] = HPLM + 10% dialyzed FBS, 5.12 µM
[10] = HPLM + 10% dialyzed FBS, 15.4 µM
[11] = HPLM + 10% dialyzed FBS, 46.1 µM
[12] = RPMI 5 mM glucose + 10% FBS, 0.000781 µM
[13] = RPMI 5 mM glucose + 10% FBS, 0.00234 µM
[14] = RPMI 5 mM glucose + 10% FBS, 0.00702 µM
[15] = RPMI 5 mM glucose + 10% FBS, 0.0211 µM
[16] = RPMI 5 mM glucose + 10% FBS, 0.0632 µM
[17] = RPMI 5 mM glucose + 10% FBS, 0.19 µM
[18] = RPMI 5 mM glucose + 10% FBS, 0.569 µM
[19] = RPMI 5 mM glucose + 10% FBS, 1.71 µM
[20] = RPMI 5 mM glucose + 10% FBS, 5.12 µM
[21] = RPMI 5 mM glucose + 10% FBS, 15.4 µM
[22] = RPMI 5 mM glucose + 10% FBS, 46.1 µM
[23] = RPMI 5 mM glucose + 10% dialyzed FBS, 0.000781 µM
[24] = RPMI 5 mM glucose + 10% dialyzed FBS, 0.00234 µM
[25] = RPMI 5 mM glucose + 10% dialyzed FBS, 0.00702 µM
[26] = RPMI 5 mM glucose + 10% dialyzed FBS, 0.0211 µM
[27] = RPMI 5 mM glucose + 10% dialyzed FBS, 0.0632 µM
[28] = RPMI 5 mM glucose + 10% dialyzed FBS, 0.19 µM
[29] = RPMI 5 mM glucose + 10% dialyzed FBS, 0.569 µM
[30] = RPMI 5 mM glucose + 10% dialyzed FBS, 1.71 µM
[31] = RPMI 5 mM glucose + 10% dialyzed FBS, 5.12 µM
[32] = RPMI 5 mM glucose + 10% dialyzed FBS, 15.4 µM
[33] = RPMI 5 mM glucose + 10% dialyzed FBS, 46.1 µM

Compound	cell viability [1] [%]	cell viability [2] [%]	cell viability [3] [%]	cell viability [4] [%]	cell viability [5] [%]	cell viability [6] [%]	cell viability [7] [%]	cell viability [8] [%]	cell viability [9] [%]	cell viability [10] [%]	cell viability [11] [%]	cell viability [12] [%]	cell viability [13] [%]	cell viability [14] [%]	cell viability [15] [%]	cell viability [16] [%]	cell viability [17] [%]	cell viability [18] [%]	cell viability [19] [%]	cell viability [20] [%]	cell viability [21] [%]	cell viability [22] [%]	cell viability [23] [%]	cell viability [24] [%]	cell viability [25] [%]	cell viability [26] [%]	cell viability [27] [%]	cell viability [28] [%]	cell viability [29] [%]	cell viability [30] [%]	cell viability [31] [%]	cell viability [32] [%]	cell viability [33] [%]
COc1cc(NC(=O)c2ccc(-c3ccc(Cl)cc3)o2)cc(OC)c1	73	94.6	93.6	106	98.5	114	116	107	107	94.3	107	77.7	90	103	104	107	96.8	94.2	86.4	102	105	98.9	81.2	96.2	95.9	102	105	95.4	96.4	89.7	99.8	109	90.1
N#CC1(c2ccc(NC(=O)c3cccnc3NCc3ccncc3)cc2)CCCC1	120	123	123	118	116	102	124	113	91	80.7	81.4	–	–	–	–	–	–	–	–	–	–	–	–	–	–	–	–	–	–	–	–	–	–
COc1nccc(-c2c(-c3ccc(F)cc3)ncn2C2CCC(O)CC2)n1 (centres undefined)	124	123	132	128	122	105	125	113	106	116	36.1	102	116	97.3	103	96.6	56.7	53.4	63.9	63.8	47.9	12.2	103	126	116	114	123	127	111	112	94.9	87.9	26.8
O=C(c1ccc(/C=C/c2n[nH]c3ccccc23)cc1)N1CCNCC1	82.7	77.8	83.4	79	60.7	53.2	48.1	16.3	20	19.3	19.8	109	120	106	85.3	82.7	56.2	62.1	10.9	11.7	12.3	13.3	75.8	78.2	73.1	80.2	66.3	51.9	38.2	15.9	15.9	14.6	13.3
CC(=O)OCC(=O)[C@@]12OC(C)(C)O[C@@H]1C[C@H]3[C@@H]4C[C@H](F)C/5=C/C(=O)/C=C\[C@]5(C)[C@@]4(F)[C@@H](O)C[C@]23C	67.2	84.1	74.8	70.2	79.9	78.5	21.4	20.6	74.8	89.7	67.8	103	104	85.4	94.7	106	99.4	24.7	21.1	78.5	78.2	76.3	92.5	102	87.9	85.2	90	68.9	15.7	10.2	106	95.4	75.4
CCOc1cc(/C=C2/C(=O)N(c3ccccc3)N=C2C)cc(Cl)c1OCC(=O)OC	69.2	85.9	84	82.7	81	90	85.9	89.5	75.7	83.6	48.4	86.2	95.7	85.2	91.1	82	107	95.6	95.8	90.9	71.9	58.6	80	74.3	95	90	64.4	90.6	81.5	86.3	85.8	65.9	59
NC/1=N/C(=O)N(C[C@@H](CO)OC[P](O)(O)=O)/C=C1	115	130	120	126	139	126	120	125	106	105	94.6	106	103	117	99.2	111	113	98.2	95.2	100	97.7	69.7	136	111	115	122	131	106	128	123	101	111	100
CC(C)C(=O)Nc1ncc(-c2cc(C(F)F)nn2-c2c(Cl)cccc2Cl)s1	109	117	120	121	130	121	133	146	124	114	48.7	–	–	–	–	–	–	–	–	–	–	–	102	114	140	130	124	132	138	142	134	126	57.5
CC(C[N+](C)(C)C)OC(N)=O (centres undefined)	107	114	83.5	98.8	96.1	106	104	116	106	110	97.6	105	105	87	128	117	132	120	124	113	120	109	116	123	88.7	114	120	107	125	108	112	116	108

Reference: the supplement of paper PMC11451515
